16 compounds from ChEMBL document CHEMBL3352689 (J Med Chem, 2014) can be followed below.

A value given as a limit tells only on which side of the number the result lay.

This experiment deals with Collagenase 3 (Homo sapiens, UniProt P45452). As to the kind of experiment: Inhibition of human recombinant MMP13 using Cy3-PLGLK(Cy5Q)AR-NH2 as substrate after 40 mins by spectrofluorimetry.

The term IC50 denotes the point on the concentration scale where inhibition reaches its midpoint. With `COc1cccc(CNC(=O)c2nc3ccc(F)cc3c(=O)[nH]2)c1`, the IC50 is 11 nM.

With `COc1cccc(CNC(=O)c2nc3ccc(C(F)(F)F)cc3c(=O)[nH]2)c1`, the IC50 was found to be 97 nM.

As to `COc1cccc(CNC(=O)c2nc3ccc(OC)cc3c(=O)[nH]2)c1`, the IC50 turned out to be 4 nM.

On to `CCOc1ccc2nc(C(=O)NCc3cccc(OC)c3)[nH]c(=O)c2c1`, for which the IC50 stood at 2.4 nM.

With `COc1cccc(CNC(=O)c2nc3ccc(OC(F)(F)F)cc3c(=O)[nH]2)c1`, the IC50 was determined as 27 nM.

Consider `COc1cccc(CNC(=O)c2nc3ccc(OCc4ccccc4)cc3c(=O)[nH]2)c1`, for which the IC50 was found to be 110 nM.

Turning to `COc1cccc(CNC(=O)c2nc3ccc(SC)cc3c(=O)[nH]2)c1`, the IC50 came out at 1.8 nM.

Regarding `COc1cccc(CNC(=O)c2nc3ccc(S(C)(=O)=O)cc3c(=O)[nH]2)c1`, the IC50 amounted to 23 nM.

Turning to `COc1cccc(CNC(=O)c2nc3ccc(-c4ccccc4)cc3c(=O)[nH]2)c1`, the IC50 was determined as 9.8 nM.

As to `COc1cccc(CNC(=O)c2nc3ccc(C#N)cc3c(=O)[nH]2)c1`, the IC50 came out at 6.3 nM.

As to `COc1cccc(CNC(=O)c2nc3cc(OC)ccc3c(=O)[nH]2)c1`, the IC50 is 2200 nM.

Take `COc1cccc(CNC(=O)c2nc3c(OC)cccc3c(=O)[nH]2)c1`: the IC50 is > 10000 nM.

Take `COc1cccc(CNC(=O)c2nc3cccc(F)c3c(=O)[nH]2)c1`: the IC50 worked out at 5 nM.

As to `COc1cccc(CNC(=O)c2nc3cccc(OC)c3c(=O)[nH]2)c1`, the IC50 was found to be 25 nM.

In the case of `COc1cccc(CNC(=O)c2nc3cccc(C#N)c3c(=O)[nH]2)c1`, the IC50 came to 8.6 nM.

Regarding `COc1cccc(CNC(=O)c2nc3cccc(-c4ccccc4)c3c(=O)[nH]2)c1`, the IC50 stood at 2.2 nM.
